Values of other authors in US9308182B2 (TEVA PHARMACEUTICAL INDUSTRIES, LTD., priority 2012, dated 2016).
Like-named read-outs stand apart in the source and are kept apart here.

Assays:
[1] = test system: MAO; settings: metabolite of rasagiline; cited from earlier work
[2] = cited from earlier work

In the case of NC1CCc2ccccc21 (stereo not shown) [aminoindan], the MAO inhibition [1] is given as “does not inhibit MAO”.

For NCCc1ccc(O)cc1 [Tyramine, tyramine], the “increase in blood pressure” value ([2]; 1 mg injected into the portal vein) is listed as 18 mmHg and the “increase in blood pressure” value ([2]; 1 mg injected systematically) is listed as 59 mmHg.

For O=C(CCNNC(=O)c1ccncc1)NCc1ccccc1 [nialamide], the “effect on blood pressure response to tyramine” value ([2]; non specific MAO inhibitor, all the treatment groups) is listed as “severe increase in blood pressure”.
